test system: HIV-1 single-round infectious reporter virus; assay: Single-round infectious HIV-1 luciferase reporter virus infection of HeLa CD4 CCR5 cells; assay type: cell-based; settings: Human immunodeficiency virus 1, HeLa-CD4/CCR5, 72 h, read-out: EC50 Group from Table 1
Method: • Virus production—Human embryonic Kidney cell line, 293, propagated in Dulbecco's Modified Eagle Medium (Life Technologies, Gaithersburg, Md.) containing 10% fetal Bovine serum (FBS, Sigma, St. Louis, Mo.). • Virus infection—Human epithelial cell line, HeLa, expressing the HIV-1 receptors CD4 and CCR5 was propagated in Dulbecco's Modified Eagle Medium (Life Technologies, Gaithersburg, Md.) containing 10% fetal Bovine serum (FBS, Sigma, St. Louis, Mo.) and supplemented with 0.2 mg/mL Geneticin (Life Technologies, Gaithersburg, Md.) and 0.4 mg/mL Zeocin (Invitrogen, Carlsbad, Calif.). Virus-Single-round infectious reporter virus was produced by co-transfecting human embryonic Kidney 293 cells with an HIV-1 envelope DNA expression vector and a proviral cDNA containing an envelope deletion mutation and the luciferase reporter gene inserted in place of HIV-1 nef sequences (Chen et al, Ref 41). Transfections were performed using lipofectAMINE PLUS reagent as described by the manufacturer (Life Technologies, Gaithersburg, Md.). Experiment • 1. Compound was added to HeLa CD4 CCR5 cells plated in 96 well plates at a cell density of 1×10^4 cells per well in 100 μl Dulbecco's Modified Eagle Medium containing 10% fetal Bovine serum at a concentration of <20 μM. • 2. 100 μl of single-round infectious reporter virus in Dulbecco's Modified Eagle Medium was then added to the plated cells and compound at an approximate multiplicity of infection (MOI) of 0.01, resulting in a final volume of 200 μl per well and a final compound concentration of <10 μM. • 3. Samples were harvested 72 h after infection. • 4. Viral infection was monitored by measuring luciferase expression from viral DNA in the infected cells using a luciferase reporter gene assay kit (Roche Molecular Biochemicals, Indianapolis, Ind.). Infected cell supernatants were removed and 50 μl of Dulbecco's Modified Eagle Medium (without phenol red) and 50 μl of luciferase assay reagent reconstituted as described by the manufacturer (Roche Molecular Biochemicals, Indianapolis, Ind.) was added per well. Luciferase activity was then quantified by measuring luminescence using a Wallac microbeta scintillation counter. • 5. The percent inhibition for each compound was calculated by quantifying the level of luciferase expression in cells infected in the presence of each compound as a percentage of that observed for cells infected in the absence of compound and subtracting such a determined value from 100. • 6. An EC50 provides a method for comparing the antiviral potency of the compounds of this invention. The effective concentration for fifty percent inhibition (EC50) was calculated with the Microsoft Excel Xlfit curve fitting software. For each compound, curves were generated from percent inhibition calculated at 10 different concentrations by using a four paramenter logistic model (model 205). Table 1 is the key for the data in Tables 2-4.

| Structure (SMILES) | EC50 [nM] |
| --- | --- |
| O=C(C(=O)N1CCN(C(=O)c2ccccc2)CC1)c1c[nH]c2c(-c3cncnc3)ncnc12 [Example 28, 1-(4-Benzoylpiperazin-1-yl)-2-(4-(pyrimidin-5-yl)-5H-pyrrolo[3,2-d]pyrimidin-7-yl)ethane-1,2-dione] | < 1000 |
| N#CC(=C1CCN(C(=O)C(=O)c2c[nH]c3c(-c4cc[nH]n4)ncnc23)CC1)c1ccccc1 [Example 43, 2-(1-(2-(4-(1H-pyrazol-3-yl)-5H-pyrrolo[3,2-d]pyrimidin-7-yl)-2-oxoacetyl)piperidin-4-ylidene)-2-phenylacetonitrile] | < 1000 |
| O=C(C(=O)N1CCN(c2nccc3ccccc23)CC1)c1c[nH]c2c(-c3cnccn3)ncnc12 [Example 31, 1-(4-(Isoquinolin-1-yl)piperazin-1-yl)-2-(4-(pyrazin-2-yl)-5H-pyrrolo[3,2-d]pyrimidin-7-yl)ethane-1,2-dione] | < 1000 |
| O=C(C(=O)N1CCC(=C(c2ccccc2)c2nnco2)CC1)c1c[nH]c2c(-n3cncn3)ncnc12 [Example 36, 1-(4-((1,3,4-Oxadiazol-2-yl)(phenyl)methylene)piperidin-1-yl) -2-(4-(1H-1,2,4-triazol-1-yl)-5H-pyrrolo[3,2-d]pyrimidin-7-yl)ethane-1,2-dione] | < 1000 |
| COc1ccc(-c2ccn(-c3ncnc4c(C(=O)C(=O)N5CCN(C(=O)c6ccccc6)CC5)c[nH]c34)n2)cc1 [Example 17, 1-(4-Benzoylpiperazin-1-yl)-2-(4-(3-(4-methoxyphenyl)-1H-pyrazol-1-yl)-5H-pyrrolo[3,2-d]pyrimidin-7-yl)ethane-1,2-dione] | < 1000 |
| N#CC(=C1CCN(C(=O)C(=O)c2c[nH]c3c(Cl)ncnc23)CC1)c1ccccc1 [Example 33, 2-(1-(2-(4-Chloro-5H-pyrrolo[3,2-d]pyrimidin-7-yl)-2-oxoacetyl)piperidin-4-ylidene)-2-phenylacetonitrile] | < 1000 |
| Cc1ncn(-c2ncnc3c(C(=O)C(=O)N4CCN(C(=O)c5ccccc5)CC4)c[nH]c23)n1 [Example 7, 1-(4-Benzoyl-piperazin-1-yl)-2-[4-(3-methyl-[1,2,4]triazol-1-yl)-5H-pyrrolo[3,2-d]pyrimidin-7-yl]-ethane-1,2-dione] | < 1000 |
| O=C(O)c1ccn(-c2ncnc3c(C(=O)C(=O)N4CCN(C(=O)c5ccccc5)CC4)c[nH]c23)n1 [Example 9, 1-{7-[2-(4-Benzoyl-piperazin-1-yl)-2-oxo-acetyl]-5H-pyrrolo[3,2-d]pyrimidin-4-yl}-1H-pyrazole-3-carboxylic Acid] | < 1000 |
| CC(=O)c1ncnc2c(C(=O)C(=O)N3CCN(C(=O)c4ccccc4)CC3)c[nH]c12 [Example 11, 1-(4-Acetyl-5H-pyrrolo[3,2-d]pyrimidin-7-yl)-2-(4-benzoylpiperazin-1-yl)ethane-1,2-dione] | < 1000 |
| O=C(C(=O)N1CCN(C(=O)c2ccccc2)CC1)c1c[nH]c2c(-n3ccnn3)ncnc12 [Example 21, 1-(4-(1H-1,2,3-Triazol-1-yl)-5H-pyrrolo[3,2-d]pyrimidin-7-yl)-2-(4-benzoylpiperazin-1-yl)ethane-1,2-dione] | < 1000 |
| O=C(C(=O)N1CCC(=C(c2ccccc2)c2nnco2)CC1)c1c[nH]c2c(Cl)ncnc12 [Example 35] | < 1000 |
| COc1ccccc1-c1ccn(-c2ncnc3c(C(=O)C(=O)N4CCN(C(=O)c5ccccc5)CC4)c[nH]c23)n1 [Example 18, 1-(4-Benzoylpiperazin-1-yl)-2-(4-(3-(2-methoxyphenyl)-1H-pyrazol-1-yl)-5H-pyrrolo[3,2-d]pyrimidin-7-yl)ethane-1,2-dione] | < 1000 |
| O=C(C(=O)N1CCN(C(=O)c2ccccc2)CC1)c1c[nH]c2c(N3CCN(C(=O)c4cc[nH]n4)CC3)ncnc12 [Example 41, 1-(4-(4-(1H-Pyrazole-3-carbonyl)piperazin-1-yl)-5H -pyrrolo[3,2-d]pyrimidin-7-yl)-2-(4-benzoylpiperazin-1-yl)ethane-1,2-dione] | < 1000 |
| O=C(C(=O)N1CCN(C(=O)c2ccccc2)CC1)c1c[nH]c2c(-n3ccc(-c4ccccn4)n3)ncnc12 [Example 39, 1-(4-Benzoylpiperazin-1-yl)-2-(4-(3-(pyridin-2-yl) -1H-pyrazol-1-yl)-5H-pyrrolo[3,2-d]pyrimidin-7-yl)ethane-1,2-dione] | < 1000 |
| Cc1ccn(-c2ncnc3c(C(=O)C(=O)N4CCN(C(=O)c5ccccc5)CC4)c[nH]c23)n1 [Example 3, 1-(4-Benzoyl-piperazin-1-yl)-2-[4-(3-methyl-pyrazol-1-yl)-5H-pyrrolo[3,2-d]pyrimidin-7-yl]-ethane-1,2-dione] | < 1000 |
| O=C(C(=O)N1CCN(C(=O)c2ccccc2)CC1)c1c[nH]c2c(Cl)ncnc12 [Example 2, 1-(4-Benzoyl-piperazin-1-yl)-2-(4-chloro-5H-pyrrolo[3,2-d]pyrimidin-7-yl)-ethane-1,2-dione] | < 1000 |
| O=C(C(=O)N1CCN(C(=O)c2ccccc2)CC1)c1c[nH]c2c(-n3nccn3)ncnc12 [Example 8, 1-(4-(2H-1,2,3-Triazol-2-yl)-5H-pyrrolo[3,2-d]pyrimidin-7-yl)-2-(4-benzoylpiperazin-1-yl)ethane-1,2-dione] | < 1000 |
| O=C(C(=O)N1CCC(=C(c2ccccc2)c2nnco2)CC1)c1c[nH]c2c(-n3cccn3)ncnc12 [Example 37, 1-(4-((1,3,4-Oxadiazol-2-yl)(phenyl)methylene)piperidin-1-yl) -2-(4-(1H-pyrazol-1-yl)-5H-pyrrolo[3,2-d]pyrimidin-7-yl)ethane-1,2-dione] | < 1000 |
| O=C(C(=O)N1CCN(C(=O)c2ccccc2)CC1)c1c[nH]c2c(-c3ccnnc3)ncnc12 [Example 29, 1-(4-Benzoylpiperazin-1-yl)-2-(4-(pyridazin-4-yl)-5H-pyrrolo[3,2-d]pyrimidin-7-yl)ethane-1,2-dione] | < 1000 |
| O=C(C(=O)N1CCN(C(=O)c2ccccc2)CC1)c1c[nH]c2c(-n3cncn3)ncnc12 [Example 20, 1-(4-(1H-1,2,4-Triazol-1-yl)-5H-pyrrolo[3,2-d]pyrimidin-7-yl)-2-(4-benzoylpiperazin-1-yl)ethane-1,2-dione] | < 1000 |
| O=C(C(=O)N1CCN(C(=O)c2ccccc2)CC1)c1c[nH]c2c(-n3ccc(-c4ccc(F)cc4)n3)ncnc12 [Example 16, 1-(4-Benzoylpiperazin-1-yl)-2-(4-(3-(4-fluorophenyl)-1H-pyrazol-1-yl)-5H-pyrrolo[3,2-d]pyrimidin-7-yl)ethane-1,2-dione] | < 1000 |
| CCOc1ncnc2c(C(=O)C(=O)N3CCN(C(=O)c4ccccc4)CC3)c[nH]c12 [Example 10, 1-(4-Benzoylpiperazin-1-yl)-2-(4-ethoxy-5H-pyrrolo[3,2-d]pyrimidin-7-yl)ethane-1,2-dione] | < 1000 |
| O=C(C(=O)N1CCN(C(=O)c2ccccc2)CC1)c1c[nH]c2c(-n3cccn3)ncnc12 [Example 6, 1-(4-Benzoyl-piperazin-1-yl)-2-(4-pyrazol-1-yl-5H -pyrrolo[3,2-d]pyrimidin-7-yl)-ethane-1,2-dione] | < 1000 |
| O=C(C(=O)N1CCN(C(=O)c2ccccc2)CC1)c1c[nH]c2c(-n3ccc(-c4ccccc4)n3)ncnc12 [Example 15, 1-(4-Benzoylpiperazin-1-yl)-2-(4-(3-phenyl-1H -pyrazol-1-yl)-5H-pyrrolo[3,2-d]pyrimidin-7-yl)ethane-1,2-dione] | < 1000 |
| O=C(C(=O)N1CCN(C(=O)c2ccccc2)CC1)c1c[nH]c2c(-c3cnccn3)ncnc12 [Example 27, 1-(4-Benzoylpiperazin-1-yl)-2-(4-(pyrazin-2-yl)-5H -pyrrolo[3,2-d]pyrimidin-7-yl)ethane-1,2-dione] | < 1000 |
| COc1ncnc2c(C(=O)C(=O)N3CCN(C(=O)c4ccccc4)CC3)c[nH]c12 [Example 5, 1-(4-Benzoyl-piperazin-1-yl)-2-(4-methoxy-5H-pyrrolo[3,2-d]pyrimidin-7-yl)-ethane-1,2-dione] | < 1000 |
| O=C(C(=O)N1CCN(C(=O)c2ccccc2)CC1)c1c[nH]c2c(-c3cccnc3)ncnc12 [Example 25, 1-(4-Benzoylpiperazin-1-yl)-2-(4-(pyridin-3-yl)-5H -pyrrolo[3,2-d]pyrimidin-7-yl)ethane-1,2-dione] | < 1000 |
| N#CC(C(=O)c1c[nH]c2c(Cl)ncnc12)N1CCN(C(=O)c2ccccc2)CC1 (stereo not shown) [Example 1, 2-(4-Benzoyl-piperazin-1-yl)-3-(4-chloro-5H-pyrrolo [3,2-d]pyrimidin-7-yl)-3-oxo-propionitrile] | < 1000 |

— US7902204B2 (priority 2003, dated 2011)
